Literature values in PubChem BioAssay AID1259409 (Chemical Carcinogenesis Research Information System (CCRIS), 2018).

Test system: rodent chemically induced tumor inhibition, incidence and multiplicity
Assay: CCRIS tumor inhibitor studies
Conditions: Carcinogen: N-NITROSOBIS(2-OXYPROPYL)AMINE, 60599-38-4, Route [Inhibitor]: ORAL, Species: HAMSTER, Promoter: NONE USED

## CCNC(=O)/C=C(C)/C=C/C=C(C)/C=C/C1=C(C)CCCC1(C)C
Dose [Inhibitor]: 0.05, 0.1 OR 0.2 MILLIMOLAR/KG DIET FOR 32 WK STARTING 1 WK AFTER THE CARCINOGEN DOSE (STUDY DURATION: 33 WK), Strain/Sex: SYRIAN/FEMALE, Target Tissue: Type of Lesion: GALL BLADDER: ADENOMA, Dose [Carcinogen]: 40 MG/KG ONCE
  tumour outcome (control, treated, inhibition, significance): 6/10 (60%), 2/23 (9%), 85%, p<0.025
Dose [Inhibitor]: 0.05, 0.1 OR 0.2 MILLIMOLAR/KG DIET FOR 32 WK STARTING 1 WK AFTER THE CARCINOGEN DOSE (STUDY DURATION: 33 WK), Strain/Sex: SYRIAN/FEMALE, Target Tissue: Type of Lesion: LIVER: ADENOMA, Dose [Carcinogen]: 40 MG/KG ONCE
  tumour outcome (control, treated, inhibition, significance): 6/10 (60%), 13/23 (59%), 2%, not significant
Dose [Inhibitor]: 0.05, 0.1 OR 0.2 MILLIMOLAR/KG DIET FOR 32 WK STARTING 1 WK AFTER THE CARCINOGEN DOSE (STUDY DURATION: 33 WK), Strain/Sex: SYRIAN/FEMALE, Target Tissue: Type of Lesion: LUNG: ADENOMA, Dose [Carcinogen]: 40 MG/KG ONCE
  tumour outcome (control, treated, inhibition, significance): 3/10 (30%), 9/23 (41%), -37%, not significant
Dose [Inhibitor]: 0.05, 0.1 OR 0.2 MILLIMOLAR/KG DIET FOR 32 WK STARTING 1 WK AFTER THE CARCINOGEN DOSE (STUDY DURATION: 33 WK), Strain/Sex: SYRIAN/FEMALE, Target Tissue: Type of Lesion: PANCREAS: ADENOMA, Dose [Carcinogen]: 40 MG/KG ONCE
  tumour outcome (control, treated, inhibition, significance): 10/10 (100%), 22/23 (96%), 4%, not significant
Dose [Inhibitor]: 0.05, 0.1 OR 0.2 MILLIMOLAR/KG DIET FOR 32 WK STARTING 1 WK AFTER THE CARCINOGEN DOSE (STUDY DURATION: 33 WK), Strain/Sex: SYRIAN/FEMALE, Target Tissue: Type of Lesion: PANCREAS: CARCINOMA, Dose [Carcinogen]: 40 MG/KG ONCE
  tumour outcome (control, treated, inhibition, significance): 4/10 (40%), 10/23 (43%), -8%, not significant
Dose [Inhibitor]: 0.05, 0.1 OR 0.2 MILLIMOLAR/KG DIET FOR 32 WK STARTING 1 WK AFTER THE CARCINOGEN DOSE (STUDY DURATION: 33 WK), Strain/Sex: SYRIAN/MALE, Target Tissue: Type of Lesion: COMMON DUCT: ADENOMA, Dose [Carcinogen]: 40 MG/KG ONCE
  tumour outcome (control, treated, inhibition, significance): 4/12 (33%), 14/26 (54%), -64%, not significant
Dose [Inhibitor]: 0.05, 0.1 OR 0.2 MILLIMOLAR/KG DIET FOR 32 WK STARTING 1 WK AFTER THE CARCINOGEN DOSE (STUDY DURATION: 33 WK), Strain/Sex: SYRIAN/MALE, Target Tissue: Type of Lesion: GALL BLADDER: ADENOMA, Dose [Carcinogen]: 40 MG/KG ONCE
  tumour outcome (control, treated, inhibition, significance): 3/12 (25%), 10/26 (39%), -56%, not significant
Dose [Inhibitor]: 0.05, 0.1 OR 0.2 MILLIMOLAR/KG DIET FOR 32 WK STARTING 1 WK AFTER THE CARCINOGEN DOSE (STUDY DURATION: 33 WK), Strain/Sex: SYRIAN/MALE, Target Tissue: Type of Lesion: LIVER: ADENOMA, Dose [Carcinogen]: 40 MG/KG ONCE
  tumour outcome (control, treated, inhibition, significance): 6/12 (50%), 12/26 (46%), 8%, not significant
Dose [Inhibitor]: 0.05, 0.1 OR 0.2 MILLIMOLAR/KG DIET FOR 32 WK STARTING 1 WK AFTER THE CARCINOGEN DOSE (STUDY DURATION: 33 WK), Strain/Sex: SYRIAN/MALE, Target Tissue: Type of Lesion: LUNG: ADENOMA, Dose [Carcinogen]: 40 MG/KG ONCE
  tumour outcome (control, treated, inhibition, significance): 1/12 (8%), 2/26 (8%), 0%, not significant
Dose [Inhibitor]: 0.05, 0.1 OR 0.2 MILLIMOLAR/KG DIET FOR 32 WK STARTING 1 WK AFTER THE CARCINOGENDOSE (STUDY DURATION: 33 WK), Strain/Sex: SYRIAN/MALE, Target Tissue: Type of Lesion: PANCREAS: ADENOMA, Dose [Carcinogen]: 40 MG/KG ONCE
  tumour outcome (control, treated, inhibition, significance): 12/12 (100%), 26/26 (100%), 0%, not significant
Dose [Inhibitor]: 0.05, 0.1 OR 0.2 MILLIMOLAR/KG DIET FOR 32 WK STARTING 1 WK AFTER THE CARCINOGENDOSE (STUDY DURATION: 33 WK), Strain/Sex: SYRIAN/MALE, Target Tissue: Type of Lesion: PANCREAS: CARCINOMA, Dose [Carcinogen]: 40 MG/KG ONCE
  tumour outcome (control, treated, inhibition, significance): 6/12 (50%), 13/26 (50%), 0%, not significant
Dose [Inhibitor]: 0.05, 0.1 OR 0.2 MM/KG DIET FOR 32 WK STARTING 1 WK AFTER THE CARCINOGEN DOSE (STUDY DURATION: 33 WK), Strain/Sex: SYRIAN/FEMALE, Target Tissue: Type of Lesion: PANCREAS: ADENOCARCINOMA, Dose [Carcinogen]: 40 MG/KG ONCE
  tumour outcome (control, treated, inhibition, significance): 2/10 (20%), 2/23 (9%), 55%, not significant
Dose [Inhibitor]: 0.05, 0.1 OR 0.2 MM/KG DIET FOR 32 WK STARTING 1 WK AFTER THE CARCINOGEN DOSE (STUDY DURATION: 33 WK), Strain/Sex: SYRIAN/FEMALE, Target Tissue: Type of Lesion: PANCREAS: CARCINOMA IN SITU, Dose [Carcinogen]: 40 MG/KG, ONCE, ONE WK PRIOR TO START OF AGENT TREATMENT
  tumour outcome (control, treated, inhibition, significance): 1/10 (10%), 7/23 (30%), -200%, not significant
Dose [Inhibitor]: 0.05, 0.1 OR 0.2 MM/KG DIET FOR 32 WK STARTING 1 WK AFTER THE CARCINOGEN DOSE (STUDY DURATION: 33 WK), Strain/Sex: SYRIAN/FEMALE, Target Tissue: Type of Lesion: PANCREAS: INTRADUCTAL CARCINOMA, Dose [Carcinogen]: 40 MG/KG, ONCE, ONE WK PRIOR TO START OF AGENT TREATMENT
  tumour outcome (control, treated, inhibition, significance): 2/10 (20%), 3/23 (9%), 55%, not significant
Dose [Inhibitor]: 0.05, 0.1 OR 0.2 MM/KG DIET FOR 32 WK STARTING 1 WK AFTER THE CARCINOGEN DOSE (STUDY DURATION: 33 WK), Strain/Sex: SYRIAN/MALE, Target Tissue: Type of Lesion: PANCREAS: ADENOCARCINOMA, Dose [Carcinogen]: 40 MG/KG, ONCE, ONE WK PRIOR TO START OF AGENT TREATMENT
  tumour outcome (control, treated, inhibition, significance): 1/12 (8%), 2/26 (8%), 0%, not significant
Dose [Inhibitor]: 0.05, 0.1 OR 0.2 MM/KG DIET FOR 32 WK STARTING 1 WK AFTER THE CARCINOGEN DOSE (STUDY DURATION: 33 WK), Strain/Sex: SYRIAN/MALE, Target Tissue: Type of Lesion: PANCREAS: CARCINOMA IN SITU, Dose [Carcinogen]: 40 MG/KG, ONCE, ONE WK PRIOR TO START OF AGENT TREATMENT
  tumour outcome (control, treated, inhibition, significance): 3/12 (25%), 8/26 (31%), -24%, not significant
Dose [Inhibitor]: 0.05, 0.1 OR 0.2 MM/KG DIET FOR 32 WK STARTING 1 WK AFTER THE CARCINOGEN DOSE (STUDY DURATION: 33 WK), Strain/Sex: SYRIAN/MALE, Target Tissue: Type of Lesion: PANCREAS: INTRADUCTAL CARCINOMA, Dose [Carcinogen]: 40 MG/KG, ONCE, ONE WK PRIOR TO START OF AGENT TREATMENT
  tumour outcome (control, treated, inhibition, significance): 2/12 (17%), 3/26 (12%), 29%, not significant
Dose [Inhibitor]: 0.05, 0.1 OR 0.2 MM/KG DIET FOR 32 WK STARTING 1 WK AFTER THE CARCINOGEN DOSE (STUDY DURATION: 33 WK), Strain/Sex: SYRIAN/MALE, Target Tissue: Type of Lesion: PANCREAS: MICROCARCINOMA, Dose [Carcinogen]: 40 MG/KG, ONCE, ONE WK PRIOR TO START OF AGENT TREATMENT
  tumour outcome (control, treated, inhibition, significance): 3/12 (25%), 4/26 (15%), 40%, not significant
